Measurements reported in patent EP0146258A2, “Glycerol derivatives” (ONO PHARMACEUTICAL CO., LTD., priority 1983, dated 1985).

Tested on: mice
Experiment: Acute toxicity by intravenous administration
Assay type: in vivo
Conditions: intravenously administered to tail vein in five mice at the dose of 50 mg/kg
Method: On the other hand, it was confirmed that the acute toxicity of all extent of the compounds of the present invention was more than 50 mg/kg by intravenous administration. Therefore, glycerol derivatives of the present invention may be considered to be sufficiently safe and suitable for medical use. For example, the mortality (dead/used) in glycerol derivatives of the present invention, i.e. compounds prepared in Example 1(h) and 11(a) was 0/5 and 0/5, respectively, when each glycerol compound was intravenously administered to tail vein in five mice at the dose of 50 mg/kg.

| Structure (SMILES) | mortality (dead/used) |
| --- | --- |
| CCCCCCCCCCCCCCCCOCC(COCCCCCCC[n+]1ccsc1)OCC (centres unmarked) [Example 1(h)] | 0/5 |
| CCCCCCCCCCCCCCCCOCC(COCCCCCCC[N+]1(C)CCCC1)NC(C)=O (centres unmarked) [11(a)] | 0/5 |
